Entries after “also recorded” stand apart in the source; their conditions may differ. Where a name gives a salt, the structure may show the parent alone. Read-outs that look alike come from different tables or passages of the source.
What was measured:
[1] = 1H NMR titration with octyloxy pyranoside β-Glc; format: binding; settings: for K1 (1:1 association constant) with β-Glc: CD2Cl2, 298 K; for affinity for β-Glc relative to SCR001: fold / ratio SCR:SCR001
ZIKV GFP RVPs [2] = test system: ZIKV GFP RVPs
[3] = Cellular toxicity, CellTiter-Glo, Vero cells; settings: African green monkey
[4] = Selectivity across the five octyloxy pyranosides from NMR titrations; format: binding; settings: for glycan preference in words / binding profile across the glycans in words: five octyloxy pyranosides, CD2Cl2, 298 K; for affinity for β-Glc over α-Man: times
[5] = 1H NMR titration with octyloxy pyranoside α-Man; format: binding; parameters: key to Ka (M^−1) with α-Man: No detectable binding; settings: for Ka (M^−1) with α-Man: NMR titrations in CD2Cl2 at 298 K; for affinity for α-Man relative to SCR001: fold / ratio SCR:SCR001
[6] = 1H NMR titration with octyloxy pyranoside α-Glc; format: binding; settings: NMR titrations
ZIKV GFP RVPs [7] = experiment: microbe, parasite or virus in culture; settings: Zika virus, Vero
[8] = 1H NMR titration with octyloxy pyranoside β-Gal; format: binding; settings: NMR titrations
HIV-1 = settings: cell culture; cited from earlier work
HeLa cells = experiment: Cellular toxicity, CellTiter-Glo, HeLa cells; settings: read-out: TC50, Table 2, 72 h
ZIKV RVPs = experiment: microbe, parasite or virus in culture; format: cell-based, Zika virus; settings: for IC50: Zika virus, HeLa
[9] = 1H NMR titration with octyloxy pyranoside β-Man; format: binding; parameters: key to Ka (M^−1) with β-Man: No detectable binding; settings: for Ka (M^−1) with β-Man: NMR titrations in CD2Cl2 at 298 K
Vero cells = experiment: Cellular toxicity, CellTiter-Glo, Vero cells; settings: for CC50: read-out: TC50, Table 1, 72 h, CellTiter-Glo
[10] = Table 3, Vero cells, ZIKV RVPs, average of at least two independent measurements
[11] = Table 3 study, Vero cells, ZIKV RVPs, unit μm [sic]
[12] = Table 1, Vero cells, compounds 30 min before ZIKV RVPs, GFP+ cells 72 h postinfection
[13] = read-out: IC50 (strong antiviral activity), Vero cells, ZIKV RVPs

c1ccc2[nH]c(CNCc3cc(CNCc4cc5ccccc5[nH]4)cc(-c4cc(CNCc5cc6ccccc6[nH]5)cc(CNCc5cc6ccccc6[nH]5)c4)c3)cc2c1 [SCR018, 1,1′,1″,1′″-([1,1′-biphenyl]-3,3′,5,5′-tetrayl)tetrakis(N-((1H-indol-2-yl)methyl)methanamine)]
binding to β-Glc in words ([1]; NMR peak shifting upon mixing): no substantial binding
therapeutic index (TC50/IC50) (ZIKV GFP RVPs [2]; Table 3, Vero cells): 2
anti-ZIKV activity in words (ZIKV GFP RVPs [2]; Vero cells, ZIKV RVPs): weaker inhibition
CC50 at 72 h [3]: 29.8 ± 5 µM
glycan preference in words [4]: uniquely bind α-Man; also recorded: specific for α-Man
fold selectivity for α-Man, SCR019 compared to SCR018 ([5]; 2-indole vs 3-indole): 36
Ka (M^−1) with α-Man ([5]; 1:1 binding): 11000 M⁻¹
affinity for α-Man relative to SCR001 [5]: 10

c1cncc(CNCc2cc(CNCc3cccnc3)cc(-c3cc(CNCc4cccnc4)cc(CNCc4cccnc4)c3)c2)c1 [SCR021, 1,1′,1″,1′″-([1,1′-biphenyl]-3,3′,5,5′-tetrayl)tetrakis(N-(pyridin-3-ylmethyl)methanamine)]
binding to α-Glc in words [6]: no substantial binding
K2 (1:2 SCR·glycan association constant) with β-Glc ([1]; 1:2 SCR·glycan complexes): 12000 M⁻¹
cumulative association constant β with β-Glc ([1]; 1:2 SCR·glycan complexes): 3.3×10^4 M^−2
K1 (1:1 association constant) with β-Glc [1]: 2.7 M⁻¹
affinity for β-Glc relative to SCR001 [1]: 25
IC50 (ZIKV GFP RVPs [7]; [10]): > 100 µM
IC50 (ZIKV GFP RVPs [7]; [11]): > 100 µM
binding to β-Gal in words [8]: no substantial binding
glycan preference in words [4]: prefer β-Glc
affinity for β-Glc over α-Man [4]: 67
Ka (M^−1) with α-Man ([5]; 1:1 binding): 490 M⁻¹

NCc1cc(CN)cc(-c2cc(CN)cc(CN)c2)c1 [Compound 2, [1,1′-biphenyl]-3,3′,5,5′-tetrayltetramethanamine tetrahydrochloride]
IC50 (ZIKV GFP RVPs [7]; [12]): > 100 µM

COc1cc(O)c2c(c1)C(=O)c1c(cc3c(c1O)-c1c(cc(C)c(C(=O)N[C@H](C)C(=O)O)c1O)[C@H](O[C@@H]1O[C@H](C)[C@H](O)[C@H](O[C@@H]4OC[C@@H](O)[C@H](O)[C@H]4O)[C@H]1O)[C@H]3O)C2=O [benanomicin A]
50% effective concentration against HIV-1 (HIV-1): micromolar concentration range

c1coc(CNCc2cc(CNCc3ccco3)cc(-c3cc(CNCc4ccco4)cc(CNCc4ccco4)c3)c2)c1 [SCR002, 1,1′,1″,1′″-([1,1′-biphenyl]-3,3′,5,5′-tetrayl)tetrakis(N-(furan-2-ylmethyl)methanamine)]
CC50 (HeLa cells): 2.51 µM
anti-ZIKV activity in words (ZIKV RVPs; HeLa cells, ZIKV RVPs): more potent than SCR001
IC50 (ZIKV RVPs): 0.35 ± 0.09 µM
anti-ZIKV activity in words (ZIKV GFP RVPs [2]; Vero cells, ZIKV RVPs): less potent
Ka (M^−1) with β-Man ([9]; 1:1 binding): 54 M⁻¹
IC50 (ZIKV GFP RVPs [7]; [12]): 1.13 ± 0.23 µM
CC50 (Vero cells): 5.43 µM
binding profile across the glycans in words [4]: measurable binding with only β-Glc, β-Man and α-Man; also recorded: binds only β-Glc, β-Man, and α-Man
glycan preference in words [4]: preference for α-Man; also recorded: selective for α-Man
Ka (M^−1) with α-Man ([5]; 1:1 binding): 1400 M⁻¹

CN[C@@H]1[C@H](O[C@@H]2OC[C@@H](O)[C@H](O)[C@H]2O)[C@@H](O)[C@H](O[C@H]2c3cc(C)c(C(=O)N[C@H](C)C(=O)O)c(O)c3-c3c(cc4c(c3O)C(=O)c3cc(OC)cc(O)c3C4=O)[C@@H]2O)O[C@@H]1C [pradimicin A]
50% effective concentration against HIV-1 (HIV-1): micromolar concentration range

c1ccc(CNCc2cc(CNCc3ccccn3)cc(-c3cc(CNCc4ccccn4)cc(CNCc4ccccn4)c3)c2)nc1 [SCR020, 1,1′,1″,1′″-([1,1′-biphenyl]-3,3′,5,5′-tetrayl)tetrakis(N-(pyridin-2-ylmethyl)methanamine)]
therapeutic index (TC50/IC50) (ZIKV GFP RVPs [2]; Table 3, Vero cells): 9
IC50 (ZIKV GFP RVPs [2]; [10]): 19.9 ± 14.4 µM
anti-ZIKV activity in words (ZIKV GFP RVPs [2]; Vero cells, ZIKV RVPs): weaker inhibition
IC50 (ZIKV GFP RVPs [7]; [10]): < 20 µM
CC50 at 72 h [3]: 178 ± 99 µM
glycan preference in words [4]: uniquely bind α-Man; also recorded: specific for α-Man
K2 (1:2 SCR·glycan association constant) with α-Man ([5]; 1:2 SCR·glycan binding model): 11 M⁻¹
cumulative association constant β with α-Man ([5]; 1:2 SCR·glycan binding model): 2.8×10^5 M^−2
cumulative association constant β with α-Man ([5]; 1:2 SCR·glycan, unit M^2): 2.8×10^5 M^2
K1 (1:1 association constant) with α-Man ([5]; CD2Cl2, 298 K): 260 M⁻¹
affinity for α-Man relative to SCR001 [5]: 200
change in affinity for α-Man, SCR020 and SCR021 ([5]; times): 570

O=C(NCc1cc(CNC(=O)c2cccs2)cc(-c2cc(CNC(=O)c3cccs3)cc(CNC(=O)c3cccs3)c2)c1)c1cccs1 [SCR008, N,N,N′,N″-([1,1′-biphenyl]-3,3′,5,5′-tetrayltetrakis(methylene))tetrakis(thiophene-2-carboxamide)]
IC50 (ZIKV GFP RVPs [2]): > 100 µM
anti-ZIKV activity in words (ZIKV GFP RVPs [2]): not effective

c1c[nH]c(CNCc2cc(CNCc3ccc[nH]3)cc(-c3cc(CNCc4ccc[nH]4)cc(Cn4cc(COCCOCCOCCOCc5cn(Cc6cc(CNCc7ccc[nH]7)cc(-c7cc(CNCc8ccc[nH]8)cc(CNCc8ccc[nH]8)c7)c6)nn5)nn4)c3)c2)c1 [SCR012]
CC50 (HeLa cells): 2.48 µM
Ka (M^−1) with β-Man ([9]; 1:1 binding): 1700 M⁻¹
CC50 (Vero cells): 36.2 µM
binding profile across the glycans in words [4]: promiscuous; also recorded: bind all five glycans
Ka (M^−1) with α-Man ([5]; 1:1 binding): 2600 M⁻¹

Oc1ccccc1CNCc1cc(CNCc2ccccc2O)cc(-c2cc(CNCc3ccccc3O)cc(CNCc3ccccc3O)c2)c1 [SCR022, 2,2′,2″,2′″-((([1,1′-biphenyl]-3,3′,5,5′-tetrayltetrakis(methylene))tetrakis(azanediyl))tetrakis(methylene))tetraphenol]
binding to α-Glc in words [6]: no substantial binding
K2 (2:1 SCR·glycan association constant) with β-Glc ([1]; 2:1 SCR·glycan complexes): 690 M⁻¹
cumulative association constant β with β-Glc ([1]; 2:1 SCR·glycan complexes): 8.1×10^4 M^−2
K1 (1:1 association constant) with β-Glc [1]: 120 M⁻¹
affinity for β-Glc relative to SCR001 [1]: 62
therapeutic index (TC50/IC50) (ZIKV GFP RVPs [2]; Table 3, Vero cells): 2
anti-ZIKV activity in words (ZIKV GFP RVPs [2]; Vero cells, ZIKV RVPs): potent anti-ZIKV activity
IC50 (ZIKV GFP RVPs [7]; [10]): 2.5 ± 0.6 µM
IC50 (ZIKV GFP RVPs [7]; [11]): < 5 µM
IC50 (ZIKV GFP RVPs [7]; [13]): < 5 µM
binding to β-Gal in words [8]: no substantial binding
cellular toxicity in words (Vero cells): toxic to Vero cells
CC50 at 72 h [3]: 4.6 ± 1.1 µM
glycan preference in words [4]: prefer β-Glc
affinity for β-Glc over α-Man [4]: 290
Ka (M^−1) with α-Man ([5]; 1:1 binding): 280 M⁻¹

c1cc(CNCc2cc(CNCc3cc[nH]c3)cc(-c3cc(CNCc4cc[nH]c4)cc(CNCc4cc[nH]c4)c3)c2)c[nH]1 [SCR017, 1,1′,1″,1′″-([1,1′-biphenyl]-3,3′,5,5′-tetrayl)tetrakis(N-((1H-pyrrol-3-yl)methyl)methanamine)]
K2 (1:2 SCR·glycan association constant) with β-Glc ([1]; 1:2 SCR·glycan complexes): 6800 M⁻¹
cumulative association constant β with β-Glc ([1]; 1:2 SCR·glycan complexes): 8.4×10^1 M^−2
cumulative association constant β with β-Glc ([1]; 1:2 SCR·glycan, unit M^2): 8.4×10^1 M^2
K1 (1:1 association constant) with β-Glc [1]: 1.2 M⁻¹
affinity for β-Glc relative to SCR001 [1]: 7
IC50 relative to regioisomer (ZIKV GFP RVPs [2]; SCR023 vs SCR022, SCR017 vs SCR001): four times higher
therapeutic index (TC50/IC50) (ZIKV GFP RVPs [2]; Table 3, Vero cells): 66
anti-ZIKV activity in words (ZIKV GFP RVPs [2]; Vero cells, ZIKV RVPs): potent anti-ZIKV activity
IC50 (ZIKV GFP RVPs [7]; [10]): 4.8 ± 0.4 µM
IC50 (ZIKV GFP RVPs [7]; [11]): < 5 µM
IC50 (ZIKV GFP RVPs [7]; [13]): < 5 µM
CC50 at 72 h [3]: 316 ± 18 µM
glycan preference in words [4]: prefers β-Glc; also recorded: specific for β-Glc

c1ccc2c(CNCc3cc(CNCc4c[nH]c5ccccc45)cc(-c4cc(CNCc5c[nH]c6ccccc56)cc(CNCc5c[nH]c6ccccc56)c4)c3)c[nH]c2c1 [SCR019, 1,1′,1″,1′″-([1,1′-biphenyl]-3,3′,5,5′-tetrayl)tetrakis(N-((1H-indol-3-yl)methyl)methanamine)]
binding to α-Glc in words [6]: no substantial binding
therapeutic index (TC50/IC50) (ZIKV GFP RVPs [2]; Table 3, Vero cells): 153
cumulative association constant β=K1×K2 with β-Man ([9]; 1:2 SCR·glycan binding model): 7.4×10^4 M^−2
cumulative association constant β with β-Man ([9]; 1:2 SCR·glycan, unit M^2): 7.4×10^4 M^2
K1 (1:1 association constant) with β-Man ([9]; CD2Cl2, 298 K): 2.3 M⁻¹
K2 (1:2 SCR·glycan association constant) with β-Man ([9]; CD2Cl2, 298 K, 1:2 SCR·glycan binding model): 32000 M⁻¹
affinity for β-Man relative to SCR001 ([9]; SCR019:SCR001): 2
IC50 (ZIKV GFP RVPs [7]; [10]): 0.26 µM
IC50 (ZIKV GFP RVPs [7]; [13]): < 5 µM
cellular toxicity in words (Vero cells): minimal cellular toxicity; also recorded: low off-site toxicity
CC50 at 72 h [3]: 39.8 ± 1.7 µM
glycan preference in words [4]: prefers β-Man; also recorded: selective for Mannosides with a preference for the β-anomer
affinity for β-Man over α-Man ([4]; fold): 250
Ka (M^−1) with α-Man ([5]; 1:1 binding): 290 M⁻¹

c1csc(CNCc2cc(CNCc3cccs3)cc(-c3cc(CNCc4cccs4)cc(CNCc4cccs4)c3)c2)c1 [SCR003, 1,1′,1″,1′″-([1,1′-biphenyl]-3,3′,5,5′-tetrayl)tetrakis(N-(thiophen-2-ylmethyl)methanamine)]
CC50 (HeLa cells): 2.47 µM
IC50 (ZIKV RVPs): 0.56 ± 0.08 µM
anti-ZIKV activity in words (ZIKV GFP RVPs [2]; Vero cells, ZIKV RVPs): less potent
Ka (M^−1) with β-Man [9]: c
Ka (M^−1) with β-Man ([9]; 1:1 binding): < 30 M⁻¹
IC50 (ZIKV GFP RVPs [7]; [12]): 1.31 µM
CC50 (Vero cells): 4.12 µM
binding profile across the glycans in words [4]: only had measurable binding with β-Glc, and α-Man; also recorded: binds only β-Glc and α-Man
glycan preference in words [4]: preference for α-Man; also recorded: selective for α-Man
Ka (M^−1) with α-Man [5]: c
